Patent US10723724B2, “Compounds for treating degenerative diseases of central nervous system or brain tumor, and uses thereof” (SUN YAT-SEN UNIVERSITY, priority 2016, dated 2020)

Key:
Type in all cases: biochemical
SGK (SGK1) [1] = biological target: T1, SGK (SGK1) (Homo sapiens, UniProt O00141); test: Kinase screening service (Life Technologies): SGK1; settings: SGK (SGK1)
T1 construct: IC50; other: SGK (SGK1); other: 10 μM, average of duplicates; SGK (SGK1)
Method: (§1) The inhibitory effect of PT109 on SGK and INK was detected by the kinase screening commercialization service of Life Technologies Corporation.
(§2) The inhibitory effect of PT109 on other kinases including SGK and JNK was detected by the Kinase Screening Service of Life Technologies Corporation (The concentration of compound 9 was 10 μM, measurements were performed in duplicates, and the value was represented by an average) to investigate the selectivity of the compound for JNK and SGK1.

SGK (SGK1) [2] = test: Kinase screening service (Life Technologies): SGK1; settings: SGK1 versus SGK2 and SGK3
Method: as §1, §2

SGK3 = biological target: T2, SGK3 (Homo sapiens, UniProt Q96BR1); test: Kinase screening service (Life Technologies): SGK3
T2 construct: purchased Life Technologies Corporation (kinase screening service)
Excerpt: as §1

ADRBK1 (GRK2) = biological target: T3, ADRBK1 (GRK2) (Homo sapiens, UniProt P25098); test: Kinase screening service: ADRBK1; settings: average of duplicates
T3 construct: purchased Life Technologies Corporation (Kinase Screening Service)
Method: as §2

CDK5/p25 = biological target: T4, CDK5/p25 (Homo sapiens, UniProt Q00535); test: Kinase screening service: CDK5/p25; settings: average of duplicates
T4 construct: purchased Life Technologies Corporation (Kinase Screening Service)
Method: as §2

CDK5/p35 = biological target: T5, CDK5/p35 (Homo sapiens, UniProt Q00535); test: Kinase screening service: CDK5/p35; settings: average of duplicates
T5 construct: purchased Life Technologies Corporation (Kinase Screening Service)
Method: as §2

CSNK1D (CK1 delta) = biological target: T6, CSNK1D (CK1 delta) (Homo sapiens, UniProt P48730); test: Kinase screening service: CSNK1D; settings: average of duplicates
T6 construct: purchased Life Technologies Corporation (Kinase Screening Service)
Method: as §2

CSNK1E (CK1 epsilon) = biological target: T7, CSNK1E (CK1 epsilon) (Homo sapiens, UniProt P49674); test: Kinase screening service: CSNK1E; settings: average of duplicates
T7 construct: purchased Life Technologies Corporation (Kinase Screening Service)
Method: as §2

CSNK2A1 (CK2 alpha 1) = biological target: T8, CSNK2A1 (CK2 alpha 1) (Homo sapiens, UniProt P68400); test: Kinase screening service: CSNK2A1; settings: average of duplicates
T8 construct: purchased Life Technologies Corporation (Kinase Screening Service)
Method: as §2

DYRK1A = biological target: T9, DYRK1A (Homo sapiens, UniProt Q13627); test: Kinase screening service: DYRK1A; settings: average of duplicates
T9 construct: purchased Life Technologies Corporation (Kinase Screening Service)
Method: as §2

FGFR1 = biological target: T10, FGFR1 (Homo sapiens, UniProt P11362); test: Kinase screening service: FGFR1; settings: average of duplicates
T10 construct: purchased Life Technologies Corporation (Kinase Screening Service)
Method: as §2

FGFR4 = biological target: T11, FGFR4 (Homo sapiens, UniProt P22455); test: Kinase screening service: FGFR4; settings: average of duplicates
T11 construct: purchased Life Technologies Corporation (Kinase Screening Service)
Method: as §2

GRK5 = biological target: T12, GRK5 (Homo sapiens, UniProt P34947); test: Kinase screening service: GRK5; settings: average of duplicates
T12 construct: purchased Life Technologies Corporation (Kinase Screening Service)
Method: as §2

GSK3B (GSK3 beta) = biological target: T13, GSK3B (GSK3 beta) (Homo sapiens, UniProt P49841); test: Kinase screening service: GSK3B; settings: average of duplicates
T13 construct: purchased Life Technologies Corporation (Kinase Screening Service)
Method: as §2

MST1R (RON) = biological target: T14, MST1R (RON) (Homo sapiens, UniProt Q04912); test: Kinase screening service: MST1R; settings: average of duplicates
T14 construct: purchased Life Technologies Corporation (Kinase Screening Service)
Method: as §2

NTRK3 (TRKC) = biological target: T15, NTRK3 (TRKC) (Homo sapiens, UniProt Q16288); test: Kinase screening service: NTRK3; settings: average of duplicates
T15 construct: purchased Life Technologies Corporation (Kinase Screening Service)
Method: as §2

PAK6 = biological target: T16, PAK6 (Homo sapiens, UniProt Q9NQU5); test: Kinase screening service: PAK6; settings: average of duplicates
T16 construct: purchased Life Technologies Corporation (Kinase Screening Service)
Method: as §2

PDGFRB (PDGFR beta) = biological target: T17, PDGFRB (PDGFR beta) (Homo sapiens, UniProt P09619); test: Kinase screening service: PDGFRB; settings: average of duplicates
T17 construct: purchased Life Technologies Corporation (Kinase Screening Service)
Method: as §2

PRKCB1 (PKC beta I) = biological target: T18, PRKCB1 (PKC beta I) (Homo sapiens, UniProt P05771); test: Kinase screening service: PRKCB1; settings: average of duplicates
T18 construct: purchased Life Technologies Corporation (Kinase Screening Service)
Method: as §2

TBK1 = biological target: T19, TBK1 (Homo sapiens, UniProt Q9UHD2); test: Kinase screening service: TBK1; settings: average of duplicates
T19 construct: purchased Life Technologies Corporation (Kinase Screening Service)
Method: as §2

CHUK (IKK alpha) = biological target: T20, CHUK (IKK alpha) (Homo sapiens, UniProt O15111); test: Kinase screening service: CHUK; settings: average of duplicates
T20 construct: purchased Life Technologies Corporation (Kinase Screening Service)
Method: as §2

PI4KB (PI4K beta) = biological target: T21, PI4KB (PI4K beta) (Homo sapiens, UniProt Q9UBF8); test: Kinase screening service: PI4KB; settings: average of duplicates
T21 construct: purchased Life Technologies Corporation (Kinase Screening Service)
Method: as §2

PIK3C2A (PI3K-C2 alpha) = biological target: T22, PIK3C2A (PI3K-C2 alpha) (Homo sapiens, UniProt O00443); test: Kinase screening service: PIK3C2A; settings: average of duplicates
T22 construct: purchased Life Technologies Corporation (Kinase Screening Service)
Method: as §2

MYO3B (MYO3 beta) = biological target: T23, MYO3B (MYO3 beta) (Homo sapiens, UniProt Q8WXR4); test: Kinase screening service: MYO3B; settings: average of duplicates
T23 construct: purchased Life Technologies Corporation (Kinase Screening Service)
Method: as §2

SLK = biological target: T24, SLK (Homo sapiens, UniProt Q9H2G2); test: Kinase screening service: SLK; settings: average of duplicates
T24 construct: purchased Life Technologies Corporation (Kinase Screening Service)
Method: as §2

T1 sequence (O00141 whole entry S422D, form open): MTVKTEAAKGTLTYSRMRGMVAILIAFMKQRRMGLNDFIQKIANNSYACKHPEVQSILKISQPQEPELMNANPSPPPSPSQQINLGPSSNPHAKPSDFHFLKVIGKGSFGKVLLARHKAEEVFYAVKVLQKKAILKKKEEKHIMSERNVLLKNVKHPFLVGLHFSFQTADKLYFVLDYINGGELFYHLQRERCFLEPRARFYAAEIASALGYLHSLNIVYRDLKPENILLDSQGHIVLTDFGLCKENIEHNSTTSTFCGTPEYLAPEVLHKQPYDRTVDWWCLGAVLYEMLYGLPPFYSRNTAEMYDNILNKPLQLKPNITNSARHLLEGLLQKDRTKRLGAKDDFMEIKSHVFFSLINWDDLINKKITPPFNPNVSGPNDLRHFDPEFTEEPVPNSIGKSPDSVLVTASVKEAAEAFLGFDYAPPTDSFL
T19 sequence (Q9UHD2 whole entry): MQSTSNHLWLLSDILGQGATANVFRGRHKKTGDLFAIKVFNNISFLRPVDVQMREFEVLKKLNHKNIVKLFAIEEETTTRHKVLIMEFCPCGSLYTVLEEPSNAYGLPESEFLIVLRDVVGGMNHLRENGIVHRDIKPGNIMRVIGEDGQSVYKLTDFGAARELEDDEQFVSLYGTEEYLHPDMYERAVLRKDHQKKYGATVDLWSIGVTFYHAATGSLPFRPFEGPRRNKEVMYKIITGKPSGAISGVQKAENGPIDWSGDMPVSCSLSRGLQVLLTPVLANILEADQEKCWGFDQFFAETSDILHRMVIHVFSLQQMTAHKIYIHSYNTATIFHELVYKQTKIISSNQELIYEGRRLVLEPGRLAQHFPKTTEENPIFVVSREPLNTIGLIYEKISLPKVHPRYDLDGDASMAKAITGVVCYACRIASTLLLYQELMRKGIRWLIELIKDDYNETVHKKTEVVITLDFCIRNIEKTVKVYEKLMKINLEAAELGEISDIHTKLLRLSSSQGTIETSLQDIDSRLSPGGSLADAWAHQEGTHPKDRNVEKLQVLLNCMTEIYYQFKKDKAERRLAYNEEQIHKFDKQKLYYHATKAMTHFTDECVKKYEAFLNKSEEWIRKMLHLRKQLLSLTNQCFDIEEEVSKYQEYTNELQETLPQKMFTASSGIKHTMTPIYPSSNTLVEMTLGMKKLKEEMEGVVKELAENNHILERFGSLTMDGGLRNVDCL
T6 sequence (P48730 whole entry): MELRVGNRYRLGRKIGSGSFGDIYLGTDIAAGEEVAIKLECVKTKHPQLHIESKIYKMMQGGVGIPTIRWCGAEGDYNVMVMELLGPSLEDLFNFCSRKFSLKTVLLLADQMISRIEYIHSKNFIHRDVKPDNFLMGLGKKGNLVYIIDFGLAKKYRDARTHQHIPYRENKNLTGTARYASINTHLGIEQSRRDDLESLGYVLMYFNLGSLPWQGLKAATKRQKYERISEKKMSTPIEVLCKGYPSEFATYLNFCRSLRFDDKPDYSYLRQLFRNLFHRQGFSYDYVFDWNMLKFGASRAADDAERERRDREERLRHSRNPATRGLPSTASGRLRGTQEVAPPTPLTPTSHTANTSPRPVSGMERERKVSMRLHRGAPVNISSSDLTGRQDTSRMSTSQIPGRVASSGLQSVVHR
T21 sequence (Q9UBF8 whole entry): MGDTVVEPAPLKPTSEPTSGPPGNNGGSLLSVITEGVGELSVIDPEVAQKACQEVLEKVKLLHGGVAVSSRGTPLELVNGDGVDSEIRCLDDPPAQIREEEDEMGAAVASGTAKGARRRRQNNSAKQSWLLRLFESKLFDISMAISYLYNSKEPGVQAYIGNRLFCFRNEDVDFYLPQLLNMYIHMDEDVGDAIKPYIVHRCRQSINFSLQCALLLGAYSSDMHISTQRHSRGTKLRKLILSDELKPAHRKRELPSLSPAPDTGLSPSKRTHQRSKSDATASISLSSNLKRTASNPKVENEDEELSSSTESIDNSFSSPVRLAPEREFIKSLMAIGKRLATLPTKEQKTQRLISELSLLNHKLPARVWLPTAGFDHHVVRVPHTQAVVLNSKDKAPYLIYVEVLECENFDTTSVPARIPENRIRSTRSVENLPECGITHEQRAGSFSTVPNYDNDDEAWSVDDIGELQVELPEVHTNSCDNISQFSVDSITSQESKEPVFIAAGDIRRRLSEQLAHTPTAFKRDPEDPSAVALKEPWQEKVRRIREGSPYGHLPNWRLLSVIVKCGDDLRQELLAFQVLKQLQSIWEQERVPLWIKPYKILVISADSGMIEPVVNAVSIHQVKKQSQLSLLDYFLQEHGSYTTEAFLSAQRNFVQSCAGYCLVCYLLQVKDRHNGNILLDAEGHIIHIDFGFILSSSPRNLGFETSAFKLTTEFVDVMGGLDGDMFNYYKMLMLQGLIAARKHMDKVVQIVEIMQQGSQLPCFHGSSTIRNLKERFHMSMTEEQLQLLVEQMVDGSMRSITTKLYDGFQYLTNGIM
T11 sequence (P22455 22-802): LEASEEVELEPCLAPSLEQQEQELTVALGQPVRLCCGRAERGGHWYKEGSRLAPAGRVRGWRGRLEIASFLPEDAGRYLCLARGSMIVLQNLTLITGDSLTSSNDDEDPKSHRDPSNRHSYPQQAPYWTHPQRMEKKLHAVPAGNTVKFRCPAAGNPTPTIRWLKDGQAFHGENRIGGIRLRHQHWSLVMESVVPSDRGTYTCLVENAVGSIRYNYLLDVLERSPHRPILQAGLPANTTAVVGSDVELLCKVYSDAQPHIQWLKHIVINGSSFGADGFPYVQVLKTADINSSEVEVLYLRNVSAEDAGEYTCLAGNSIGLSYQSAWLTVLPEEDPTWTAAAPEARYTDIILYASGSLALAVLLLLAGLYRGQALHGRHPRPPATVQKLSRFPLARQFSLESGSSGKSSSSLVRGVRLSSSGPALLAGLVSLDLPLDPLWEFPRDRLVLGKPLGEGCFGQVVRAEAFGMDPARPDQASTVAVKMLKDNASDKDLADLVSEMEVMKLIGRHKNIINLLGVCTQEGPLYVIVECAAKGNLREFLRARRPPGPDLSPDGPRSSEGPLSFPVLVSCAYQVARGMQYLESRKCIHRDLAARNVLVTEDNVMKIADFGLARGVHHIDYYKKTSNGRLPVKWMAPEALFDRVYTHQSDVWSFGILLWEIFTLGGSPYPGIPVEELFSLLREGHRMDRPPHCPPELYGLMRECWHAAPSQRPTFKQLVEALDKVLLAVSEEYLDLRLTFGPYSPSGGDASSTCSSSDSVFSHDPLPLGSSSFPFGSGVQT
T3 sequence (P25098 whole entry): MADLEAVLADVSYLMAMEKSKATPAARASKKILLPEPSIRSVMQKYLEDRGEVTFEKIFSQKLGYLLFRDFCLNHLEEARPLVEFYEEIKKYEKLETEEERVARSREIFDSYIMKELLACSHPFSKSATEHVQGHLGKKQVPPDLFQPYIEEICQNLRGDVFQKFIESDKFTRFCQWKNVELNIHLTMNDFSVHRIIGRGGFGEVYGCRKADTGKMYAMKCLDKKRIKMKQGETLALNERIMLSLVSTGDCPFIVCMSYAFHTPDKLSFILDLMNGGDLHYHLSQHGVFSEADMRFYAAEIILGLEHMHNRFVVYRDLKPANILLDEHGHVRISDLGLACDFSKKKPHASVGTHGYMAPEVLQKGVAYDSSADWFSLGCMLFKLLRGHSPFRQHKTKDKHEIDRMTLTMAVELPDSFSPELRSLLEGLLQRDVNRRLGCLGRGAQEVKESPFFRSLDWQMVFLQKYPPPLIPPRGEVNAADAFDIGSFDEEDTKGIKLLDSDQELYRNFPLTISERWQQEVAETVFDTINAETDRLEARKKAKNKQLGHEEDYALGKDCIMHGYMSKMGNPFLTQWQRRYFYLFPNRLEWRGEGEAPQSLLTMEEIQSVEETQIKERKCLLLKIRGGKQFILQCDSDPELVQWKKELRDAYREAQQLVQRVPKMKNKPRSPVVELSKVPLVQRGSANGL
T8 sequence (P68400 whole entry): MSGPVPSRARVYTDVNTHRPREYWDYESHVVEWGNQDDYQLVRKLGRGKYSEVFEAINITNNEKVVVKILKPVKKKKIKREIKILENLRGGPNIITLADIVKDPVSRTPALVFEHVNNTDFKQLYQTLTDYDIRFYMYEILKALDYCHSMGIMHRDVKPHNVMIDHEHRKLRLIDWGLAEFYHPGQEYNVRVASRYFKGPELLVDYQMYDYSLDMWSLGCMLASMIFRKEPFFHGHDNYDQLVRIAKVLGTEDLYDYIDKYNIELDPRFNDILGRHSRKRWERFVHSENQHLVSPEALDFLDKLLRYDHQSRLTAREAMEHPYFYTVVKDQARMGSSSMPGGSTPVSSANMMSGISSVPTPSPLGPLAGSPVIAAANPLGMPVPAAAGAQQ
T12 sequence (P34947 whole entry): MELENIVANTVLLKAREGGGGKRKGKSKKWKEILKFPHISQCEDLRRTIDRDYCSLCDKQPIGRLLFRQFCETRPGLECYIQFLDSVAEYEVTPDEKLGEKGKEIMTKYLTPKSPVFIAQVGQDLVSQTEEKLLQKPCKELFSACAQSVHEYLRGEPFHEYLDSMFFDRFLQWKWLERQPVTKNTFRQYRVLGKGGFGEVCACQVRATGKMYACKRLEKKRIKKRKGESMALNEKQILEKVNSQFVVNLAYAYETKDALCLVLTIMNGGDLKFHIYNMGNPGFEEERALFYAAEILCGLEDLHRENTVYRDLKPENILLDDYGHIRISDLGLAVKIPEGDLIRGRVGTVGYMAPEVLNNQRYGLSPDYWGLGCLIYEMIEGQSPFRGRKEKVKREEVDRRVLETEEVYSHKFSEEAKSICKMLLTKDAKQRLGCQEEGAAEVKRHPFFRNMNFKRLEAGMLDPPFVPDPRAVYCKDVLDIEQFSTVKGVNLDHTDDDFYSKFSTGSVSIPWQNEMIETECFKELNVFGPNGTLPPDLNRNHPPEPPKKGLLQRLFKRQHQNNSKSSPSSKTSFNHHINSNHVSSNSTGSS

% Inhibition (SGK (SGK1) [1]; 10 μM, average of duplicates): 91% | IC50 (SGK (SGK1) [1]): 1.34 µM | specificity for SGK1 (SGK (SGK1) [2]): better specificity for SGK1 | IC50 (SGK3): 26.4 µM | inhibition at 10 µM (ADRBK1 (GRK2)): 6% | inhibition at 10 µM (CDK5/p25): 18% | inhibition at 10 µM (CDK5/p35): 26% | inhibition at 10 µM (CSNK1D (CK1 delta)): 6% | inhibition at 10 µM (CSNK1E (CK1 epsilon)): 10% | inhibition at 10 µM (CSNK2A1 (CK2 alpha 1)): 14% | inhibition at 10 µM (DYRK1A): 16% | inhibition at 10 µM (FGFR1): -3% | inhibition at 10 µM (FGFR4): -2% | inhibition at 10 µM (GRK5): 2% | inhibition at 10 µM (GSK3B (GSK3 beta)): 61% | inhibition at 10 µM (MST1R (RON)): 35% | inhibition at 10 µM (NTRK3 (TRKC)): 28% | inhibition at 10 µM (PAK6): -16% | inhibition at 10 µM (PDGFRB (PDGFR beta)): 7% | inhibition at 10 µM (PRKCB1 (PKC beta I)): -10% | inhibition at 10 µM (TBK1): 10% | inhibition at 10 µM (CHUK (IKK alpha)): 16% | inhibition at 10 µM (PI4KB (PI4K beta)): 39% | inhibition at 10 µM (PIK3C2A (PI3K-C2 alpha)): 3% | inhibition at 10 µM (MYO3B (MYO3 beta)): 43% | inhibition at 10 µM (SLK): 5%
SMILES: O=C(CCCCC1CCSS1)NC1CCC(Nc2cccc3cnccc23)CC1 (centres unmarked) [PT109, 5-(1,2-dithiolan-3-yl)-N-(4-(isoquinolin-5-ylamino)cyclohexyl) pentanamide]
